{"source": "patent US4632922A", "about": "“Oxomorpholinyl dimer and rescue of anthracycline and mitomycin C damage” (The United States of America as represented by the …, priority 1985, dated 1986)", "key": {"[1]": {"test": "Kinetic measurements of TM3 reactivity with anthracycline compounds in methanol solvent", "conditions": "reaction with TM3, 25° C.", "description": "Kinetic measurements of TM3 reactivity\nwith anthracycline compounds at 25° C. in methanol solvent."}, "swine skin": {"test_system": "swine skin", "test": "Skin lesions after intradermal DOX in swine", "assay_type": "in vivo, miniature white swine", "description": "In order to produce anthracycline induced tissue damage, clinical grade doxorubicin (DOX) hydrochloride was obtained as a representative anthracycline chemical from the Drug Synthesis Branch, Developmental Therapeutics Program, National Cancer Institute. Each vial contained 10 mg DOX hydrochloride and 50 mg lactose which was reconstituted with 5.0 ml sterile 0.9% NaCl solution to give a final drug concentration of 2.0 mg/ml. DHM3 solution was prepared by dissolving 10 mg in ice-cold water which had been purged with N2 gas for 5 minutes. Dissolution was facilitated by brief sonication to give a final concentration of 10 mg/ml. The solution was kept cold (≈4° C.) and protected from air and light.\nFemale weanling miniature white swine weighing approximately 12 kg were obtained from the Veterinary Resources Branch, National Institutes of Health. The development of this strain of swine has been described previously (Sachs, et al., Transplantation 22:559-567, 1976). Each animal was housed in a 6×4 ft metabolic cage and was fed standard NIH show chow, 1.5 lbs twice daily.\nDOX HCl (2.0 mg/ml) was administered intradermally (i.d.) with a 25 gauge needle inserted approximately 4 to 5 mm into the skin. Following the injection of 0.5, 0.75 or 1.0 ml (1.0, 1.5, or 2.0 mg, respectively) DOX solution, the syringe was removed from the hub leaving the needle in place. After the indicated time interval, 1.0 ml (10 mg) DHM3 was injected through the same needle and the needle was then removed. Control sites received 1.0 ml sterile water instead of DHM3. The injection sites were along the mid-lateral aspect of each side of the swine and were 4-5 cm apart (6-8 injection sites per side). One animal was used for a dose experiment where DOX, 0.5 ml/site was injected along one side and 1.0 ml/site was injected along the contralateral side. Fifteen minutes later, DHM3 or water was injected into alternating sites as described above. A second animal received DOX, 0.75 ml/site along both sides. DHM3 or water was injected into alternating sites at times varying from 5 to 120 minutes following DOX administration.\nAll lesions were measured by a single observer with metric calipers three times weekly for two weeks, followed by weekly measurements thereafter. The areas of skin ulceration and induration were estimated by the product of the cross perpendicular diameters. The total toxicity of DOX-induced skin ulceration was determined by calculating the area under the ulceration-time curve (AUC) in mm^2 -days.\nIn order to assess the extent of tissue injury following intradermal DOX or DHM3, incisional biopsies were performed on representative lesions 6 and 20 days following drug injection. These samples were placed in 10% buffered formalin and processed for examination by standard light microscopy (Pathco Inc., Potomac, MD.)."}, "DOX-induced injury": {"test_system": "DOX-induced injury", "conditions": "cited from earlier work; for reduction of size of ulceration: animal models"}, "[2]": {"test": "Solubility of 7-deoxydaunorubicinone in the aqueous reaction medium", "assay_type": "physicochemical", "conditions": "water, pH8"}, "[3]": {"test": "Kinetics of reaction of DHM3 with daunorubicin in water solvent", "conditions": "over the first 85 sec, water, 10° C., ten-fold excess DHM3", "description": "A test similar to that described for the same reaction in methanol solvent (vide supra) was run. Oxomorpholinyl dimer DHM3 (1.38 mg, 4.37×10^-3 mmol) was dissolved in 0.5 ml of oxygen-free methanol and quickly transferred without delay into one compartment of the cell. The solvent was promptly removed under vacuum. Daunorubicin hydrochloride ([…]) was dissolved in 100 ml of an aqueous solution of Tris (24.2 mg) and Tris hydrochloride (31.6 mg) and 2.6 ml of this solution (4.18×10^-4 mmol of 6) was introduced into the other compartment of the cell. The sample was freeze-thaw degassed over three cycles as described above, sealed, and placed in a thermostatted cell holder at 10.0±0.1° C. for about 20 min prior to mixing. Full spectra between 320 and 800 nm were recorded every 10 sec for the first 125 sec, and then every 20 sec. From the absorbance change at 620 nm over the first 85 sec (50% reaction of daunorubicin), a non-linear least-squares treatment gave a first order rate constant for bond homolysis of DHM3 (k1) equal to 6×10^-4 sec^-1 and a first order rate constant for destruction of 7 (k2) equal to 2×10^-2 sec^-1. Treatment of the data obtained in the 164-225 sec interval gave k2 =2.8×10^-2 sec^-1.\nThus, when a ten-fold excess of DHM3 is reacted with an oxygen-free 2×10^-4 M solution of 6 in buffered water (pH8) at 10° C., the absorbance of the solution at 618-620 nm, due to the tautomer 7, reaches its maximum after 125 sec and then decreases quickly, with an 80% decrease in 100 sec. Here again the formation and destruction of 7, as calculated from the data obtained in the first 85 sec of reaction, follows consecutive first order kinetics, first order in DHM3 and 7, with k1 =6×10^-4 sec^-1, k2 =2×10^-2 sec^-1 and ε7 =9600. Calculation of k2 from the absorbance data taken after 165 sec of reaction time, when only first order destruction of 7 is observed, gives a value of 2.8×10^-2 sec^-1."}}}
{"smiles": "CC(=O)C1(O)Cc2c(O)c3c(c(O)c2C(OC2CC(N)C(O)C(C)O2)C1)C(=O)c1ccccc1C3=O", "note": "(stereo not shown) [4-DEMETHOXYDAUNORUBICIN, 4-demethoxydaunorubicin]", "values": [{"measurement": "RATE CONSTANT k2", "setting": "[1]", "result": 0.009, "unit": "s⁻¹"}]}
{"smiles": "CC[C@@]1(O)C[C@H](O[C@H]2C[C@H](N(C)C)[C@H](O[C@H]3C[C@H](O)[C@H](O[C@H]4CCC(=O)[C@H](C)O4)[C@H](C)O3)[C@H](C)O2)c2c(cc3c(c2O)C(=O)c2c(O)cccc2C3=O)[C@H]1C(=O)OC", "note": "[ACLARUBICIN]", "values": [{"measurement": "RATE CONSTANT k2", "setting": "[1]", "result": 0.0009, "unit": "s⁻¹"}]}
{"smiles": "COc1cccc2c1C(=O)c1c(O)c3c(c(O)c1C2=O)C[C@@](O)(C(=O)CO)C[C@@H]3O[C@H]1C[C@H](N)[C@H](O)[C@H](C)O1", "note": "[DOX, doxorubicin]", "values": [{"measurement": "RATE CONSTANT k2", "setting": "[1]", "result": 0.011, "unit": "s⁻¹"}, {"measurement": "dose dependence of skin ulceration size", "setting": "swine skin; DOX 0.5 to 1.0 ml (2.0 mg/ml) i.d.", "result": "linearly dependent on the dose"}, {"measurement": "start of ulcer formation following DOX", "setting": "swine skin; DOX i.d.", "result": "7 to 8", "unit": "days"}, {"measurement": "time to complete healing of ulcer", "setting": "swine skin; DOX i.d.", "result": "≤ 7", "unit": "weeks"}, {"measurement": "time to maximal ulcer size following DOX", "setting": "swine skin; DOX i.d.", "result": 3, "unit": "weeks"}, {"measurement": "microscopic appearance of lesions", "setting": "swine skin; DOX i.d., biopsy", "result": "extensive coagulation-type necrosis of epidermis, dermis, and subcutaneous tissue, including muscle"}, {"measurement": "ulcer following DOX, compared with present results", "setting": "DOX-induced injury; 2 mg/site i.d., swine, Okano et al. 1983", "result": "smaller and more variable ulcer"}]}
{"smiles": "CO[C@@H]1C[C@](C)(O)Cc2cc3c(c(O)c21)C(=O)c1c(O)cc2c(c1C3=O)O[C@@H]1O[C@@]2(C)[C@H](O)[C@@H](N(C)C)[C@@H]1O", "note": "[MENOGARIL]", "values": [{"measurement": "RATE CONSTANT k2", "setting": "[1]", "result": 0.0025, "unit": "s⁻¹"}]}
{"smiles": "Cc1c(C)c2c(c(C)c1O)CCC(C)(CCCC(C)CCCC(C)CCCC(C)C)O2", "note": "(stereo not drawn) [alpha-tocopherol]", "values": [{"measurement": "reduction of size of ulceration", "setting": "DOX-induced injury", "result": "purported to reduce the size of ulceration in some animal models but not in all"}]}
{"smiles": "COc1cccc2c1C(=O)c1c(O)c3c(c(O)c1C2=O)CC(O)(C(C)=O)CC3", "note": "(stereo not shown) [compound 8, 7-deoxydaunorubicinone]", "values": [{"measurement": "solubility", "setting": "[2]", "result": "sparingly soluble"}]}
{"smiles": "COc1cccc2c1C(=O)c1c(O)c3c(c(O)c1C2=O)C[C@@](O)(C(C)=O)C[C@@H]3O[C@H]1C[C@H](N)[C@H](O)[C@H](C)O1", "note": "[daunorubicin, reference compound]", "values": [{"measurement": "reaction of daunorubicin", "setting": "[3]", "result": 50, "unit": "%"}, {"measurement": "RATE CONSTANT k2", "setting": "[1]", "result": 0.013, "unit": "s⁻¹"}]}
{"smiles": "C[S+](C)[O-]", "note": "[dimethyl sulfoxide]", "values": [{"measurement": "reduction of size of ulceration", "setting": "DOX-induced injury", "result": "purported to reduce the size of ulceration in some animal models but not in all"}, {"measurement": "severity of DOX-induced injury", "setting": "DOX-induced injury; swine model, Okano et al. 1983", "result": "appeared to ameliorate the severity of injury"}]}
